Entries after “also recorded” stand apart in the source; their conditions may differ.
Tests used:
Assay type in all cases: in vivo, mouse
[1] = system: insulin receptor (IR) signaling intermediates Akt, GSK-3β, FOXO1; test: Western blot of liver extracts: phosphorylation of insulin receptor signaling intermediates; conditions: livers from VEGF Trap-treated mice (FIG. 8)
Source text: (§1) FIG. 4 is a Western blot indicating increased hepatic insulin signaling following single intravenous injections of 5×10^8 pfu Ad Flt1 (VEGF inhibition) or Ad Fc (negative control) into adult C57Bl/6 mice. […] IR-β: b-subunit of the IR. * P≦0.05; n=5 animals each.
(§2) FIG. 8 is a digital image of a Western blot analysis.

G6PC and PEPCK = test: Quantitative PCR of hepatic gluconeogenic gene expression; conditions: SCID mice, six weeks twice-weekly s.c. 25 mg/kg VEGF Trap vs human Fc (FIG. 9)
IRS-2 = test: Western blot of liver extracts: hepatic IRS-2 protein; conditions: livers from VEGF Trap-treated mice (FIG. 8)
Source text: as §1, §2

db/db mice [2] = test: Plasma insulin levels by ELISA in db/db mice; conditions: VEGF Trap vs hFc, ELISA (FIG. 31)
Protocol: FIG. 31 is a graph showing plasma insulin levels as determined by ELISA. * P=0.003 between VEGF Trap- and hFc-treated db/db mice. The hyperinsulinemia of db/db mice is corrected by VEGF Trap treatment.
FIGS. 28-29 illustrate that the chronic administration of VEGF Trap protein improves hepatic glucose tolerance in db/db mice. 10 week-old female db/db and db/+ mice (n=5) were treated with twice-weekly subcutaneous injections of 25 mg/kg VEGF Trap or control hFc.

C57Bl/6 and SCID mice = test: Ad libidum and fasting blood glucose levels in wild-type mice; conditions: 6 weeks of twice-weekly s.c. VEGF Trap vs human Fc (FIG. 6)
C57Bl/6 mice = test: Euglycemic, hyperinsulinemic clamp analyses; conditions: adult male C57Bl/6 mice
Source text: Adult male C57Bl/6 mice (n=8 or 9) were used. * P=0.01 ** P=0.0001 for control vs. treatment.

db/db mice [3] = test: Glucose tolerance test in db/db mice; conditions: twice-weekly s.c. 25 mg/kg VEGF Trap vs hFc, 0.5 g/kg glucose i.p. (FIGS. 29-30)
Protocol: FIG. 26 is a graph showing the results of glucose tolerance tests. 7 d after adenoviral infection, mice were given 0.5 g/kg glucose intraperitoneally and blood glucose levels were measured.
FIG. 29 is a graph showing the results of a glucose tolerance test in db/db mice. Mice were given 0.5 g/kg glucose intraperitoneally and blood glucose levels were measured. * P<0.03 between treatment groups at the indicated time points. Values are mean±s.e.m.
FIG. 30 is a graph showing the results of a glucose tolerance test in db/db mice. Mice were given 0.5 g/kg glucose intraperitoneally and blood glucose levels were measured. * P<0.03 between treatment groups at the indicated time points. Values are mean±s.e.m.
FIG. 32 is a graph showing the results of a glucose tolerance test in db/db mice. Mice were given 0.5 g/kg glucose intraperitoneally and blood glucose levels were measured. * P<0.02 between treatment groups at the indicated time points. Values are mean±s.e.m.
(§3) FIGS. 25-27 illustrate that VEGF inhibition and HIF-2α activation reverse the diabetic phenotype of db/db mice. The data of […] are from 10 week-old female db/db mice injected with 5×10^8 pfu of the indicated viruses.
FIGS. 28-29 illustrate that the chronic administration of VEGF Trap protein improves hepatic glucose tolerance in db/db mice. […]

db/db mice [4] = test: Ad libidum (fed) and fasting blood glucose levels in db/db mice; conditions: long-term twice-weekly s.c. 25 mg/kg VEGF Trap vs hFc (FIG. 28)
Source text: FIG. 25 is a graph showing ad libidum and fasting blood glucose levels in mice. * P≦0.05 in the indicated treatment groups compared to control.
FIG. 28 is a graph showing ad libidum blood glucose levels. * P<0.04 between VEGF Trap- and hFc-treated db/db mice at the indicated time points.
FIG. 33 is a graph showing the fed and fasting blood glucose levels in db/db mice.
Db/db model. Db/db or wild-type mice received single intravenous injection of adenoviruses encoding Ad Flt (soluble VEGF receptor), Ad Fc (control antibody Fc fragment), VEGF Trap or control human Fc fragment, with or without adenovirus encoding shRNA against HIF-2α, or scrambled control shRNA. Adenovirus gives preferential and quantitative hepatocyte infection, a robust maneuver for achieving hepatic gene knockdown (Canettieri et al., (2005) Cell Metab. 2: 331; Taniguchi et al., (2005) J. Clin. Invest. 115: 718).
as §3
FIGS. 28-29 illustrate that the chronic administration of VEGF Trap protein improves hepatic glucose tolerance in db/db mice. 10 week-old female db/db and db/+ mice (n=5) were treated with twice-weekly subcutaneous injections of 25 mg/kg VEGF Trap or control hFc. […]

HIF-2α = test: Immunoblots of hepatic HIF-2α; conditions: C57Bl/6 mice, 14 days after single injection of 5×10^8 pfu Ad Flt1 vs Ad Fc (FIG. 11)

VEGF Trap: Ig domain 2 from VEGFR1 fused to Ig domain 3 from VEGFR2, fused to the Fc domain of IgG1 (Regeneron)
liver phospho-AKT levels [1]: higher levels
hepatic expression of G6PC and PEPCK (G6PC and PEPCK): significantly reduced
liver IRS-2 levels (IRS-2): higher levels
plasma insulin levels (hyperinsulinemia) (db/db mice [2]): sustained correction; also recorded: corrected
blood glucose levels (C57Bl/6 and SCID mice): lowered
glucose infusion rate to maintain euglycemia (C57Bl/6 mice; hyperinsulinemic euglycemic clamp (FIG. 7A)): higher glucose infusion rate
insulin suppression of hepatic glucose production (insulin action in the liver) (C57Bl/6 mice; hyperinsulinemic euglycemic clamp (FIG. 7B)): increased insulin action in the liver
glucose tolerance (GTT) (db/db mice [3]): improved glucose tolerance; also recorded: improves
ad libidum blood glucose levels (hyperglycemia) (db/db mice [4]): sustained correction
hepatic HIF-2α stabilization (HIF-2α): increased stabilization

From patent US20100330098A1, “METHODS TO REGULATE GLUCOSE METABOLISM” (priority 2009, published 2010)
